Assay results published in US20220105150A1, “AMPHIPATHIC ALPHA-HELICAL ANTIMICROBIAL PEPTIDES TREAT INFECTIONS BY GRAM-NEGATIVE PATHOGENS” (priority 2019, published 2022).
In brackets after ≈: the same amount, converted by molar mass. Read-outs that look alike come from different tables or passages of the source. Square brackets hold non-standard residues; d marks the D form. Peptide text beside a SMILES is read from it. Dap = NC[C@H](N)C(=O)O

How the values were obtained:
[1] = system: A. baumannii strains from JMI Laboratories; settings: 20 A. baumannii isolates from JMI Laboratories; cited from earlier work
[2] = system: Acinetobacter baumannii strains resistant to Polymyxin B and Colistin; settings: strains resistant to Polymyxin B and Colistin, 24 h
Source text: The coupling procedure used 5 equivalents of Fmoc-D-amino acid or Fmoc-L-amino acid and HCTU (O-(1H-6-chlorobenzotriazole-1-yl)-1,1,3,3-tetramethyluronium hexafluorophosphate) and 6-Cl-HOBt (1-hydroxy-6-chloro-benztriazole) at 4.5 equivalents in DMF (Fisher Scientific, Denver, Colo.) and N-diisopropylethylamine (DIPEA) 10 equivalents (Oakwood Products, Inc., Estill, S.C.) in N-methyl-2-pyrrolidinone (NMP) (Fisher Scientific, Denver, Colo.) with the first and second couplings at room temperature for 30 min each. The deprotection procedure (removal of Fmoc protecting group) was carried out by treatment of the resin with 0.1 M HOBt (1-hydroxybenzotriazole) in DMF with 20% piperidine for 30 min. […] The resin was removed by filtration and peptide was precipitated with ice-cooled ethyl ether on ice for 15 min. Ether was decanted, the peptide was washed twice with ether and redissolved in acetonitrile/water (1:1, with 0.2% TFA) and the solution lyophilized to obtain the crude peptide. • Analytical and Preparative Purification by Reversed-Phase Chromatography: Analytical RP-HPLC: Column, Luna C18 (2), 250×4.6 mm I.D., 5 μm particle size, 100 Å pore size from Phenomenex (Torrance, Calif.). Run conditions: linear AB gradient (1% acetonitrile/min, starting from 2% acetonitrile) at a flow-rate of 1 ml/min, where eluent A is 0.2% aq. TFA and eluent B is 0.18% TFA in acetonitrile; temperature, 30° C. Preparative RP-HPLC: Peptides were dissolved in 0.2% aq. TFA containing 2% acetonitrile to a final concentration of 10 mg/ml. Following filtration through a 0.45 μm Millipore filter and subsequently through a 0.22 μm filter, the peptide solutions were loaded onto the column via multiple 20-ml injections into a 20-ml injection loop at a flow-rate of 10 ml/min. Column, Luna C18 (2), 250×30 mm I.D., 5 um particle size, 100 Å pore size from Phenomenex. Run conditions: 2% acetonitrile/min gradient up to an acetonitrile concentration 10% below that required to elute the peptide during analytical RP-HPLC, then shallow gradient elution (0.05% or 0.1% acetonitrile/min depending on the complexity of impurities near the product of interest on the analytical run of the crude peptide) at a flow-rate of 10 ml/min (same eluents as shown above for analytical RP-HPLC); at room temperature. • Temperature Profiling of Peptides on Reversed-phase HPLC to Measure Dimerization and Oligomerization: Purified peptides were analyzed on an Agilent 1200 series liquid chromatograph for temperature profiling using a Zorbax 300 SB-C8 column (150 mm×2.1 mm I.D.; 5 μm particle size, 300 Å pore size) from Agilent Technologies. […] Temperature profiling was carried out on peptide mixtures run at each temperature in 2° C. increments from 5° C. to 41° C. and 10° C. increments from 5° C. to 75° C. Twenty minutes was allowed between runs for temperature equilibration. • Characterization of Helical Structure: The mean residue molar ellipticities of peptides were determined by circular dichroism (CD) spectroscopy, using a Jasco J-815 spectropolarimeter (Jasco Inc. Easton, Md., USA) at 5° C. under KP buffer (50 mM NaH2PO4/Na2HPO4/100 mM KCl, pH 7.0) as well as in the presence of an α-helix inducing solvent, 2,2,2-trifluoroethanol, TFE, (50 mM NaH2PO4/Na2HPO4/100 mM KCl, pH 7.0 buffer/50% TFE). A 10-fold dilution of an approximately 500 μM stock solution of the peptide analogs was loaded into a 0.1 cm quartz cell and its ellipticity scanned from 195 to 250 nm.

[3] = system: Acinetobacter baumannii isolates resistant to classical antibiotics; type: cell-based; settings: isolates resistant to classical antibiotics
Source text: Thus, shortening the number of carbon atoms between the side-chain amino group and the α-carbon atom from four (Lys) to one (diaminopropionic acid) had very little effect on antibacterial activity (Table 2). We also determined the antibacterial activity of our five AMPs against 20 additional Acinetobacter baumannii isolates from four continents, 12 different countries and 17 different cities that were resistant to 18 different antibiotics. […] Thus, it is very clear that changing the type of positively-charged residue on the polar face of these AMPs had very little effect on the antibacterial activities.

[4] = system: Acinetobacter baumannii strains resistant to Polymyxin B and Colistin; settings: results provided by MERCK, cited from earlier work

NCC[C@H](O)C(=O)N[C@@H]1C[C@H](N)[C@@H](O[C@H]2O[C@H](CN)[C@@H](O)[C@H](O)[C@H]2O)[C@H](O)[C@H]1O[C@H]1O[C@H](CO)[C@@H](O)[C@H](N)[C@H]1O [Amikacin]
number of resistant isolates out of the number of isolates screened [1]: 17/20

C[C@H]1[C@H](NC(=O)/C(=N\OC(C)(C)C(=O)O)c2csc(N)n2)C(=O)N1S(=O)(=O)O [Aztreonam]
number of resistant isolates out of the number of isolates screened [1]: 20/20

CO/N=C(\C(=O)N[C@@H]1C(=O)N2C(C(=O)[O-])=C(C[N+]3(C)CCCC3)CS[C@H]12)c1csc(N)n1 [Cefepime]
number of resistant isolates out of the number of isolates screened [1]: 18/20

CC(C)(O/N=C(\C(=O)N[C@@H]1C(=O)N2C(C(=O)[O-])=C(C[n+]3ccccc3)CS[C@H]12)c1csc(N)n1)C(=O)O [Ceftazidime]
number of resistant isolates out of the number of isolates screened [1]: 17/20

O=C(O)c1cn(C2CC2)c2cc(N3CCNCC3)c(F)cc2c1=O [Ciprofloxacin]
number of resistant isolates out of the number of isolates screened [1]: 15/20

CC(=O)N[C@H](CCCCN)C(=O)N[C@H](CC(C)C)C(=O)N[C@H](CCCCN)C(=O)N[C@H](CO)C(=O)N[C@H](CC(C)C)C(=O)N[C@H](CC(C)C)C(=O)N[C@H](CCCCN)C(=O)N[C@@H](C(=O)N[C@H](CC(C)C)C(=O)N[C@H](CO)C(=O)N[C@H](CCCCN)C(=O)N[C@H](C)C(=O)N[C@H](CCCCN)C(=O)N[C@H](C)C(=O)N[C@H](C)C(=O)N[C@H](CCCCN)C(=O)N[C@H](CC(C)C)C(=O)N[C@H](CCCCN)C(=O)N[C@@H](C(=O)N[C@H](CC(C)C)C(=O)N[C@H](CC(C)C)C(=O)N[C@H](CCCCN)C(=O)N[C@H](C)C(=O)N[C@H](CC(C)C)C(=O)N[C@H](CO)C(=O)N[C@H](CCCCN)C(N)=O)[C@H](C)O)[C@H](C)O [D84(Lys^1-6Lys-1), Ac-KL(Lys)SLL(Lys)TLS(Lys)AKAAKL(Lys)TLL(Lys)ALS(Lys)-amide]
MIC MB9941 [2]: 0.3 µM (≈ 0.86 µg/mL) | MIC MB9949 [2]: 0.7 µM (≈ 2.01 µg/mL) | MIC MB9951 [2]: 0.3 µM (≈ 0.86 µg/mL) | MIC MB9952 [2]: 0.7 µM (≈ 2.01 µg/mL) | MIC MB9953 [2]: 0.7 µM (≈ 2.01 µg/mL) | MIC MB9955 [2]: 0.3 µM (≈ 0.86 µg/mL) | MIC MB9963 [2]: 0.7 µM (≈ 2.01 µg/mL) | MIC 101887 [3]: 0.7 µM (≈ 2.01 µg/mL) | MIC 961997 [3]: 1.4 µM (≈ 4.01 µg/mL) | MIC 963618 [3]: 0.7 µM (≈ 2.01 µg/mL) | MIC 964304 [3]: 1.4 µM (≈ 4.01 µg/mL) | MIC 977751 [3]: 0.3 µM (≈ 0.86 µg/mL) | MIC 981653 [3]: 0.7 µM (≈ 2.01 µg/mL) | MIC 1002956 [3]: 0.3 µM (≈ 0.86 µg/mL) | MIC 1007660 [3]: 0.3 µM (≈ 0.86 µg/mL) | MIC 1010282 [3]: 0.7 µM (≈ 2.01 µg/mL) | MIC 1035166 [3]: 0.7 µM (≈ 2.01 µg/mL)

CC(=O)N[C@H](CCCCN)C(=O)N[C@H](CC(C)C)C(=O)N[C@H](CCCCN)C(=O)N[C@H](CO)C(=O)N[C@H](CC(C)C)C(=O)N[C@H](CC(C)C)C(=O)N[C@H](CCCCN)C(=O)N[C@@H](C(=O)N[C@H](CC(C)C)C(=O)N[C@H](CO)C(=O)N[C@H](CCCCN)C(=O)N[C@H](C)C(=O)N[C@H](CCCCN)C(=O)N[C@H](C)C(=O)N[C@H](C)C(=O)N[C@H](CCCCN)C(=O)N[C@H](CC(C)C)C(=O)N[C@H](CCCCN)C(=O)N[C@@H](C(=O)N[C@H](CC(C)C)C(=O)N[C@H](CC(C)C)C(=O)N[C@H](CCCCN)C(=O)N[C@H](C)C(=O)N[C@H](CC(C)C)C(=O)N[C@H](CO)C(=O)N[C@H](CO)C(N)=O)[C@H](C)O)[C@H](C)O [D101(Lys^1Ser^26-5Lys-1), Ac-KL(Lys)SLL(Lys)TLS(Lys)AKAAKL(Lys)TLL(Lys)ALS(Ser)-amide]
MIC MB9941 [2]: 0.7 µM (≈ 1.98 µg/mL) | MIC MB9949 [2]: 0.7 µM (≈ 1.98 µg/mL) | MIC MB9951 [2]: 0.7 µM (≈ 1.98 µg/mL) | MIC MB9952 [2]: 0.7 µM (≈ 1.98 µg/mL) | MIC MB9953 [2]: 1.5 µM (≈ 4.24 µg/mL) | MIC MB9955 [2]: 0.7 µM (≈ 1.98 µg/mL) | MIC MB9963 [2]: 0.7 µM (≈ 1.98 µg/mL) | MIC 101887 [3]: 1.4 µM (≈ 3.95 µg/mL) | MIC 961997 [3]: 1.4 µM (≈ 3.95 µg/mL) | MIC 963618 [3]: 0.7 µM (≈ 1.98 µg/mL) | MIC 964304 [3]: 1.4 µM (≈ 3.95 µg/mL) | MIC 977751 [3]: 0.7 µM (≈ 1.98 µg/mL) | MIC 981653 [3]: 0.7 µM (≈ 1.98 µg/mL) | MIC 1002956 [3]: 0.7 µM (≈ 1.98 µg/mL) | MIC 1007660 [3]: 0.7 µM (≈ 1.98 µg/mL) | MIC 1010282 [3]: 1.4 µM (≈ 3.95 µg/mL) | MIC 1035166 [3]: 1.4 µM (≈ 3.95 µg/mL)

CC(=O)N[C@H](CCCCN)C(=O)N[C@H](CC(C)C)C(=O)N[C@@H](CN)C(=O)N[C@H](CO)C(=O)N[C@H](CC(C)C)C(=O)N[C@H](CC(C)C)C(=O)N[C@@H](CN)C(=O)N[C@@H](C(=O)N[C@H](CC(C)C)C(=O)N[C@H](CO)C(=O)N[C@H](C)C(=O)N[C@H](C)C(=O)N[C@H](CCCCN)C(=O)N[C@@H](CN)C(=O)N[C@@H](CN)C(=O)N[C@H](CCCCN)C(=O)N[C@H](CC(C)C)C(=O)N[C@H](C)C(=O)N[C@@H](C(=O)N[C@H](CC(C)C)C(=O)N[C@H](CC(C)C)C(=O)N[C@@H](CN)C(=O)N[C@H](C)C(=O)N[C@H](CC(C)C)C(=O)N[C@H](CO)C(=O)N[C@@H](CN)C(N)=O)[C@H](C)O)[C@H](C)O [D106(Lys^1-6 Dap-2), Ac-KL(L-Dap)SLL(L-Dap)TLSAAK(L-Dap)(L-Dap)KLATLL(L-Dap)ALS(L-Dap)-amide] (Ac-[dK][dL][Dap][dS][dL][dL][Dap][dT][dL][dS][dA][dA][dK][Dap][Dap][dK][dL][dA][dT][dL][dL][Dap][dA][dL][dS][Dap]-NH2)
MIC MB9941 [2]: 0.8 µM (≈ 2.09 µg/mL) | MIC MB9949 [2]: 0.8 µM (≈ 2.09 µg/mL) | MIC MB9951 [2]: 1.5 µM (≈ 3.92 µg/mL) | MIC MB9952 [2]: 0.8 µM (≈ 2.09 µg/mL) | MIC MB9953 [2]: 0.8 µM (≈ 2.09 µg/mL) | MIC MB9955 [2]: 0.4 µM (≈ 1.05 µg/mL) | MIC MB9963 [2]: 0.8 µM (≈ 2.09 µg/mL)

C[C@@H](O)[C@H]1C(=O)N2C(C(=O)O)=C(S[C@@H]3CN[C@H](CNS(N)(=O)=O)C3)[C@H](C)[C@H]12 [Doripenem]
number of resistant isolates out of the number of isolates screened [1]: 17/20

C[C@@H](O)[C@H]1C(=O)N2C(C(=O)O)=C(S[C@@H]3CN[C@H](C(=O)N(C)C)C3)[C@H](C)[C@H]12 [Meropenem]
number of resistant isolates out of the number of isolates screened [1]: 17/20

NC[C@H]1O[C@H](O[C@H]2[C@H](O)[C@@H](O[C@H]3O[C@H](CO)[C@@H](O)[C@H](N)[C@H]3O)[C@H](N)C[C@@H]2N)[C@H](N)C[C@@H]1O [Tobramycin]
number of resistant isolates out of the number of isolates screened [1]: 18/20

Ampicillin-sulbactam
number of resistant isolates out of the number of isolates screened [1]: 17/20

Ceftazidime-avibactam
number of resistant isolates out of the number of isolates screened [1]: 17/20

Polymyxin B
MICGM ([4]; geometric mean over seven strains): >25 µM | MIC MB9941 ([4]; strain MB9941): >25 µM | MIC MB9949 ([4]; strain MB9949): >25 µM | MIC MB9951 ([4]; strain MB9951): >25 µM | MIC MB9952 ([4]; strain MB9952): >25 µM | MIC MB9953 ([4]; strain MB9953): >25 µM | MIC MB9955 ([4]; strain MB9955): >25 µM | MIC MB9963 ([4]; strain MB9963): >25 µM
